Source: paper PMC4480820, “Modafinil and its metabolites enhance the anticonvulsant action of classical antiepileptic drugs in the mouse maximal electroshock-induced seizure model” (Psychopharmacology, 2015)
Read-outs that look alike come from different tables or passages of the source.

Columns and labels:
[1] = system: skeletal muscular strength in mice; assay: Grip strength test; type: in vivo, Swiss mice; details: mean ± S.E.M.
Experimental: The effects of combinations of modafinil (50 mg kg^−1), sulfone and acid metabolites (50 mg kg^−1), or GBR 12909 (25 mg kg^−1) with different classical AEDs at doses corresponding to their ED50 values from the MES test on skeletal muscular strength in mice were quantified by the grip strength test of Meyer et al. ([1979]). The grip strength apparatus (BioSeb, Chaville, France) comprised a wire grid (8 × 8 cm) connected to an isometric force transducer (dynamometer). The mice were lifted by the tails so that their forepaws could grasp the grid. The mice were then gently pulled backward by the tail until the grid was released. The maximal force exerted by the mouse before losing grip was recorded. The mean of three measurements for each animal was calculated, and subsequently, the mean maximal force of eight animals per group was determined. The muscular strength in mice is expressed in N (newtons) as the means ± S.E.M. of at least eight determinations.

[2] = system: passive avoidance performance in mice; assay: Step-through passive avoidance task; type: in vivo, Swiss mice; details: median (25th; 75th percentiles), observed up to 180 s
Experimental: The effects of combinations of modafinil (50 mg kg^−1), its metabolites (50 mg kg^−1), or GBR 12909 (25 mg kg^−1) with different classical AEDs were quantified by the step-through passive avoidance task of Venault et al. ([1986]). AEDs were administered at doses corresponding to their ED50 values from the MES test. Each animal received an AED either alone or in combination either with modafinil, sulfone, and acid metabolites or with GBR 12909 on the first day before training. The time before commencement of the training session (after drug administration) in the step-through passive avoidance task was identical to that for the MES test. Subsequently, the animals were placed in an illuminated box (10 × 13 × 15 cm) connected to a larger dark box (25 × 20 × 15 cm) equipped with an electric grid floor. Entrance of the animals to the dark box was punished by an adequate electric footshock (0.6 mA for 2 s). […] On the following day (24 h later), the pretrained animals were placed again into the illuminated box and observed for up to 180 s. Mice that avoided the dark compartment for 180 s were considered as having remembered the task. The time the mice took to enter the dark box was noted, and the median latencies (retention times) with 25th and 75th percentiles were calculated.

[3] = system: motor coordination in mice; assay: Chimney test; type: in vivo, Swiss mice; details: n = 8 mice/group
From the text: The chimney test of Boissier et al. ([1960]) was used to quantify the adverse effect potential of classical AEDs administered in combination with modafinil, its metabolites, or GBR 12909. In this test, the animals had to climb backwards up a plastic tube (3-cm inner diameter, 30 cm long), and impairment of motor performance was indicated by the inability of the mice to climb backward up the transparent tube within 60 s.

[4] = system: threshold for electroconvulsions in mice; assay: Maximal electroshock seizure threshold (MEST) test; details: for TID20 (dose that increases threshold by 20 %): i.p., 30 min before test, from linear regression of dose vs threshold increase
[5] = system: MES-induced seizures in mice; set-up: method as in Chatterjie et al. [2004]; details: 300 mg kg^−1 i.p., ref Chatterjie et al. [2004], cited from earlier work; for Protection against MES-induced seizures: administered alone
[6] = Total brain antiepileptic drug concentrations (fluorescence polarization immunoassay); details: AED + vehicle, mean ± S.E.M., n = 8
Experimental: The whole brains of mice were removed from the skulls, weighed, harvested, and homogenized using Abbott buffer (1:2 weight/volume; Abbott Laboratories, North Chicago, IL, USA) in an Ultra-Turrax T8 homogenizer. The homogenates were then centrifuged at 10,000 g for 10 min, and the supernatant samples of 100 μl were collected and then analyzed for AED content. Total brain concentrations of CBZ, PB, PHT, and VPA were measured by a fluorescence polarization immunoassay using an analyzer (Abbott TDx) and manufacturer-supplied reagent kits (Abbott Laboratories, North Chicago, IL, USA). Total brain AED concentrations are expressed in μg g^−1 of wet brain tissue as means ± standard error of the mean (S.E.M.) of at least eight separate brain preparations.

[7] = system: MES-induced seizures in mice; assay: Maximal electroshock seizure (MES) test, AEDs alone and in combination; type: in vivo, Swiss mice; details: AED + vehicle (alone), i.p., 25 mA, ± S.E.M.
Experimental: The stimulus duration was 0.2 s.
These parameters of stimulation (maximal electroshock) typically result in all mice responding with tonic hind limb extension immediately after stimulation. The AEDs administered alone and their combination with modafinil, its metabolites, or GBR 12909 were tested for their ability to increase the number of animals not responding with tonus (i.e., protected from tonic hind limb extension) after stimulation. […] After constructing a dose-effect curve (i.e., dose in mg kg^−1 vs percentage of mice protected), the protective median effective dose (ED50) value of the AED tested was calculated according to a log-probit method by Litchfield and Wilcoxon ([1949]). […] Modafinil, its two metabolites, and GBR 12909 were tested for their ability to affect the anticonvulsive potency of AEDs.

[8] = system: locomotor activation in mice; set-up: method as in Paterson et al. [2010]; details: ref Paterson et al. [2010]; cited from earlier work
[9] = system: CYP2C9; details: human hepatocytes; ref Robertson and Hellriegel [2003]; cited from earlier work
[10] = system: electroconvulsions in mice; set-up: method as in Chen et al. [2007]; details: ref Chen et al. [2007], cited from earlier work
[11] = system: CYP3A4/5; details: human liver microsomes; ref Robertson and Hellriegel [2003]; cited from earlier work
[12] = compound alone 50 mg kg^−1 i.p. + vehicle
[13] = i.p.: CBZ 4.3, PB 13.0, PHT 5.4, VPA 245.3 mg kg^−1 (control of MOD)
[14] = i.p.: CBZ 5.7, PB 14.0, PHT 6.0, VPA 226.4 mg kg^−1 (control of SULF)
[15] = i.p.: CBZ 6.4, PB 14.4, PHT 6.3, VPA 241.6 mg kg^−1 (control of ACID)
[16] = i.p.: CBZ 11.2, PB 15.4, PHT 7.0, VPA 211.4 mg kg^−1 (control of GBR)
[17] = control of GBR series (Table 5)
[18] = control of MOD, SULF and ACID series (Tables 2-4)
[19] = GBR alone 25 mg kg^−1 i.p. + vehicle

O=C(O)CSC(c1ccccc1)c1ccccc1 [ACID, diphenylmethylthioacetic acid]
Grip strength [1, 12]: 0.961 ± 0.050 N
Retention time [2, 12]: 180 (133.5; 180) s
Motor coordination impairment (number of animals showing impairment in the chimney test) [3, 12]: 0/8
TI (percentage of threshold increase over vehicle control) ([4]; 12.5 mg kg^−1 i.p.): 12.83%
TI (percentage of threshold increase over vehicle control) ([4]; 25 mg kg^−1 i.p.): 22.32%
TI (percentage of threshold increase over vehicle control) ([4]; 50 mg kg^−1 i.p.): 34.80%
TI (percentage of threshold increase over vehicle control) ([4]; 75 mg kg^−1 i.p.): 57.82%
TID20 (dose that increases threshold by 20 %) [4]: 23.47 mg/kg
Toxicity at the dose tested in the MES test [5]: toxic

NC(=O)N1c2ccccc2C=Cc2ccccc21 [CBZ, carbamazepine]
Brain concentration of the AED [6, 13]: 2.41 ± 0.48 μg g^−1 of wet brain tissue
Brain concentration of the AED [6, 14]: 3.76 ± 0.35 μg g^−1 of wet brain tissue
Brain concentration of the AED [6, 15]: 4.46 ± 0.31 μg g^−1 of wet brain tissue
Brain concentration of the AED [6, 16]: 6.66 ± 0.42 μg g^−1 of wet brain tissue
ED50 of the AED (protecting 50 % of animals against MES-induced hind limb extension) [7, 17]: 15.53 ± 1.04 mg/kg
ED50 of the AED (protecting 50 % of animals against MES-induced hind limb extension) [7, 18]: 11.23 ± 1.20 mg/kg

Fc1ccc(C(OCCN2CCN(CCCc3ccccc3)CC2)c2ccc(F)cc2)cc1 [GBR]
Grip strength [1, 19]: 0.937 ± 0.042 N
Retention time [2, 19]: 180 (133.5; 180) s
Motor coordination impairment (number of animals showing impairment in the chimney test) [3, 19]: 1/8
TI (percentage of threshold increase over vehicle control) ([4]; 6.25 mg kg^−1 i.p.): 11.25%
TI (percentage of threshold increase over vehicle control) ([4]; 12.5 mg kg^−1 i.p.): 19.18%
TI (percentage of threshold increase over vehicle control) ([4]; 25 mg kg^−1 i.p.): 25.67%
TI (percentage of threshold increase over vehicle control) ([4]; 50 mg kg^−1 i.p.): 44.53%
TID20 (dose that increases threshold by 20 %) [4]: 16.37 mg/kg
Dose eliciting equivalent locomotor activation [8]: 15 mg/kg

NC(=O)C[S+]([O-])C(c1ccccc1)c1ccccc1 (stereo not shown) [MOD, diphenylmethylsulfinylacetamide]
Grip strength [1, 12]: 0.908 ± 0.053 N
Inhibition of CYP2C9 [9]: inhibit
Retention time [2, 12]: 180 (123.5; 180) s
Mice protected against electroconvulsions ([10]; 22.5 mg kg^−1 i.p.): 50%
Mice protected against electroconvulsions ([10]; 45 mg kg^−1 i.p.): 70%
Mice protected against electroconvulsions ([10]; 90 mg kg^−1 i.p.): 90%
Mice protected against electroconvulsions ([10]; 180 mg kg^−1 i.p.): 70%
Motor coordination impairment (number of animals showing impairment in the chimney test) [3, 12]: 0/8
TI (percentage of threshold increase over vehicle control) ([4]; 12.5 mg kg^−1 i.p.): −2.78%
TI (percentage of threshold increase over vehicle control) ([4]; 25 mg kg^−1 i.p.): 2.78%
TI (percentage of threshold increase over vehicle control) ([4]; 50 mg kg^−1 i.p.): 22.88%
TI (percentage of threshold increase over vehicle control) ([4]; 75 mg kg^−1 i.p.): 35.46%
TID20 (dose that increases threshold by 20 %) [4]: 49.12 mg/kg
Dose eliciting equivalent locomotor activation [8]: 150 mg/kg
Inhibition of CYP3A4/5 [11]: weak inhibition
Protection against MES-induced seizures [5]: 100%

CCC1(c2ccccc2)C(=O)NC(=O)NC1=O [PB, phenobarbital]
Brain concentration of the AED [6, 13]: 23.56 ± 1.10 μg g^−1 of wet brain tissue
Brain concentration of the AED [6, 14]: 23.71 ± 0.86 μg g^−1 of wet brain tissue
Brain concentration of the AED [6, 15]: 25.46 ± 0.84 μg g^−1 of wet brain tissue
Brain concentration of the AED [6, 16]: 24.18 ± 0.70 μg g^−1 of wet brain tissue
ED50 of the AED (protecting 50 % of animals against MES-induced hind limb extension) [7, 17]: 26.90 ± 2.15 mg/kg
ED50 of the AED (protecting 50 % of animals against MES-induced hind limb extension) [7, 18]: 20.80 ± 3.12 mg/kg

O=C1NC(=O)C(c2ccccc2)(c2ccccc2)N1 [PHT, phenytoin]
Brain concentration of the AED [6, 13]: 1.39 ± 0.20 μg g^−1 of wet brain tissue
Brain concentration of the AED [6, 14]: 1.65 ± 0.19 μg g^−1 of wet brain tissue
Brain concentration of the AED [6, 15]: 1.70 ± 0.15 μg g^−1 of wet brain tissue
Brain concentration of the AED [6, 16]: 3.22 ± 0.30 μg g^−1 of wet brain tissue
ED50 of the AED (protecting 50 % of animals against MES-induced hind limb extension) [7, 17]: 12.10 ± 1.20 mg/kg
ED50 of the AED (protecting 50 % of animals against MES-induced hind limb extension) [7, 18]: 11.00 ± 0.93 mg/kg

NC(=O)CS(=O)(=O)C(c1ccccc1)c1ccccc1 [SULF, diphenylmethylsufonylacetamide]
Grip strength [1, 12]: 0.957 ± 0.058 N
Retention time [2, 12]: 180 (180; 180) s
Motor coordination impairment (number of animals showing impairment in the chimney test) [3, 12]: 0/8
TI (percentage of threshold increase over vehicle control) ([4]; 12.5 mg kg^−1 i.p.): 14.24%
TI (percentage of threshold increase over vehicle control) ([4]; 25 mg kg^−1 i.p.): 21.62%
TI (percentage of threshold increase over vehicle control) ([4]; 50 mg kg^−1 i.p.): 32.34%
TI (percentage of threshold increase over vehicle control) ([4]; 75 mg kg^−1 i.p.): 58.88%
TID20 (dose that increases threshold by 20 %) [4]: 23.57 mg/kg
Protection against MES-induced seizures [5]: 50%

CCCC(CCC)C(=O)O [VPA, valproate]
Brain concentration of the AED [6, 13]: 299.73 ± 15.09 μg g^−1 of wet brain tissue
Brain concentration of the AED [6, 14]: 276.30 ± 11.55 μg g^−1 of wet brain tissue
Brain concentration of the AED [6, 15]: 346.98 ± 16.10 μg g^−1 of wet brain tissue
Brain concentration of the AED [6, 16]: 173.66 ± 10.36 μg g^−1 of wet brain tissue
ED50 of the AED (protecting 50 % of animals against MES-induced hind limb extension) [7, 17]: 286.7 ± 20.11 mg/kg
ED50 of the AED (protecting 50 % of animals against MES-induced hind limb extension) [7, 18]: 328.6 ± 13.17 mg/kg
